Source: patent publication US9181265B2, “Substituted 2,3-dihydro-1H-benzo[a]pyrano[2,3-c]phenazines as anti-angiogenic and anti-cancer agents” (UNIVERSITE CATHOLIQUE DE LOUVAIN, priority 2010, dated 2015)
Where two headings read alike, the source gives them in different places. Marks after values point to notes of the source that are not given here.

Legend:
[1] = tested on: Human umbilical vein endothelial cells (HUVEC); assay: MTT test of overall cell growth, endothelial cells, normoxic or hypoxic conditions; assay type: cell-based; conditions: for IC50: Homo sapiens; for Selectivity: if u.t.d., ratio of activity at 100 μM
Procedure: (§1) MTT tests were performed in order to rapidly, i.e. within 3 days, measure the effect of compounds of this invention on the overall cell growth. The test measured the number of metabolically active living cells that were able to transform the yellow product 3-(4,5-dimethylthiazol-2-yl)-2,5-diphenyl tetrazolium bromide (herein referred as MTT) into the blue product formazan dye by mitochondrial reduction. The amount of formazan obtained at the end of the experiment, measured by means of a spectrophotometer (Plate Reader Victor X4 Microplate reader (Perkin Elmer), is directly proportional to the number of living cells. Optical density determination thus enabled a quantitative measurement of the effect of the investigated compounds under control conditions (normoxia) as compared to the hypoxic conditions (0.1 or 1% O2) and/or untreated conditions.
(§2) Human umbilical vein endothelial cells (HUVEC) and six human cancer cell lines were used in the MTT tests. These cancer cell lines cover five histological cancer types including cervix (SiHa), breast (MCF-7 and MDA-MB231), prostate (PC3), glioma (U373), and colorectal (LoVo) cancers.
(§3) To perform the assay, cells were allowed to grow in 96-well microplates with a flat bottom following addition of an amount of 100 μl of cell suspension per well with 4,500 cells/well. Each cell line was seeded in its appropriate culture medium. HUVEC were cultured in a specific endothelial cell growth medium (ECACC, Sigma); SiHa cells in Glutamax-containing DMEM with 4.5 g/1 glucose (Invitrogen) supplemented with 10% Foetal Bovine Serum (PAA) and 1% penicillin+streptomycin mix (Invitrogen); MCF-7, MDA-MB-231, PC3, and LoVo cells in Glutamax-containing RPMI supplemented with 10% Foetal Bovine Serum (PAA) and 1% penicillin+streptomycin mix (Invitrogen) and U373 cells in Glutamax-containing DMEM (Invitrogen) with 5% Foetal Bovine Serum (PAA) and 1% penicillin+streptomycin mix (Invitrogen).
(§4) The detailed experimental procedure was the following: after a 24-hour period of incubation at 37° C., the culture medium was replaced by 100 μl of fresh medium in which the tested compound was previously dissolved, at the following concentrations: 10^−8 M, 5.10^−8, 10^−7, 5.10^−7, 10^−6, 5.10^−6, 10^−5, 5.10^−5 and 10^−[…]. Each experiment was performed in sestuplicates (6 times).
(§5) Cells were then incubated under normoxia in a Binder incubator (the O2 level corresponding to the concentration in the ambient air), or in a Ruskin hypoxia workstation under either 0.1% O2 (v/v) or 1% O2 (v/v). Under both conditions, the atmosphere was humidified and the CO2 concentration was fixed at 5 vol. %.
(§6) After 72 hours of incubation at 37° C. under normoxic or hypoxic conditions, with or without the compound to be tested, the medium was replaced by 100 μl of HBSS (without phenol red) containing MTT at a concentration of 0.5 or 1 mg/ml. The micro-wells were subsequently incubated during 3 hours and a half at 37° C. and centrifuged at 1300 rpm during 10 minutes. Medium was removed and formazan crystals formed were dissolved in 100 μl DMSO. The micro-wells were shaken for 5 minutes and read on a spectrophotometer at wavelengths of 570 nm (maximal formazan absorbance).
(§7) For each experimental condition, the mean optical density was calculated, allowing the determination of the percentage of living cells in comparison to the control.

MDA-MB-231 = assay: MTT test of overall cell growth, MDA-MB-231 breast cancer cells, normoxia or hypoxia; assay type: cell-based, human; conditions: for IC50: Homo sapiens, MDA-MB-231, hypoxia 1% O2, 72 h, read-out: IC50 (μM) Hypoxia 1% O2; for IC50 (μM) Normoxia: MDA-MB-231, normoxia, 72 h; for Selectivity: MDA-MB-231, IC50 (normoxia)/IC50 (hypoxia 1% O2), if u.t.d., ratio of activity at 100 μM
Procedure: as §1, §2, §3, §4, §5, §6, §7

MCF-7 = assay: MTT test of overall cell growth, MCF-7 breast cancer cells, normoxia or hypoxia; assay type: cell-based, human; conditions: for IC50 (μM) Normoxia: MCF-7, normoxia, 72 h; for IC50: Homo sapiens, MCF7, read-out: IC50 (μM) Hypoxia 1% O2; for Selectivity: MCF-7, IC50 (normoxia)/IC50 (hypoxia 1% O2), if u.t.d., ratio of activity at 100 μM
Procedure: as §1, §2, §3, §4, §5, §6, §7

PC3 = assay: MTT test of overall cell growth, PC3 prostate cancer cells, normoxia or hypoxia; assay type: cell-based, human; conditions: for IC50 (μM) Normoxia: PC3, normoxia, 72 h
Procedure: as §1, §2, §3, §4, §5, §6, §7

LoVo = assay: MTT test of overall cell growth, LoVo colorectal cancer cells, normoxia or hypoxia; assay type: cell-based, human; conditions: for IC50: Homo sapiens; for Selectivity: IC50 (normoxia)/IC50 (hypoxia 1% O2), if u.t.d., ratio of activity at 100 μM
Procedure: as §1, §2, §3, §4, §5, §6, §7

siHa = assay: MTT test of overall cell growth, SiHa cervix cancer cells, normoxia or hypoxia; assay type: cell-based, human; conditions: for IC50: Homo sapiens, hypoxia 1% O2, 72 h, read-out: IC50 (μM) Hypoxia 1% O2; for Selectivity: IC50 (normoxia)/IC50 (hypoxia 1% O2), if u.t.d., ratio of activity at 100 μM; for IC50 (μM) Normoxia: 72 h
Procedure: as §1, §2, §3, §4, §5, §6, §7

U373 = assay: MTT test of overall cell growth, U373 glioma cells, normoxia or hypoxia; assay type: cell-based, human; conditions: for IC50: Homo sapiens, U373 MG, U373, hypoxia 1% O2, 72 h, read-out: IC50 (μM) Hypoxia 1% O2; for IC50 (μM) Normoxia: U373, normoxia, 72 h; for Selectivity: U373, IC50 (normoxia)/IC50 (hypoxia 1% O2), if u.t.d., ratio of activity at 100 μM
Procedure: as §1, §2, §3, §4, §5, §6, §7

[2] = 72 h, hypoxia 0.1% O2, 72 h, read-out: IC50 (μM) Hypoxia 0.1%
[3] = 72 h, hypoxia 1% O2, 72 h, read-out: IC50 (μM) Hypoxia 1%
[4] = 72 h, normoxia, 72 h, series compared with hypoxia 1%, read-out: IC50 (μM) Normoxia
[5] = IC50 (normoxia)/IC50 (hypoxia 0.1%)
[6] = IC50 (normoxia)/IC50 (hypoxia 1%)
[7] = hypoxia 1% O2, 72 h, read-out: IC50 (μM) Hypoxia 1% O2
[8] = normoxia, 72 h, read-out: IC50 (μM) Normoxia
[9] = 72 h, normoxia, 72 h, series compared with hypoxia 0.1%, read-out: IC50 (μM) Normoxia

IC50 (MDA-MB-231) [µM]	IC50 (μM) Normoxia (MDA-MB-231)	IC50 (μM) Normoxia (MCF-7)	IC50 (μM) Hypoxia 1% O2 (PC3; PC3, hypoxia 1% O2, 72 h)	IC50 (μM) Normoxia (PC3)	IC50 (LoVo; [8]) [µM]	IC50 (siHa) [µM]	IC50 (μM) Normoxia (siHa)	IC50 (U373) [µM]	IC50 (μM) Normoxia (U373)	SMILES	IC50 [1, 2] [µM]	IC50 [1, 3] [µM]	IC50 [1, 4] [µM]	Selectivity [1, 5]	Selectivity [1, 6]	Selectivity (MDA-MB-231)	IC50 (LoVo; [7]) [µM]	Selectivity (LoVo)	Selectivity (siHa)	Selectivity (U373)	further results
158	u.t.d.	u.t.d.	u.t.d.	u.t.d.	216	134	u.t.d.	141	u.t.d.	COC(=O)c1ccc2nc3c4c(c5ccccc5c3nc2c1)OC(C)(C)[C@H]1CC[C@H](C)C[C@H]41 [Compound 11]	65.8	10.9	149	>3.4^b	14	>1.44^b	152	1.42	>1.69^b	>1.61^b	IC50 (μM) Normoxia ([1]; normoxia, 72 h, series compared with hypoxia 0.1%): u.t.d.; IC50 (μM) Hypoxia 1% O2 (MCF-7; MCF-7, hypoxia 1% O2, 72 h): u.t.d.
230	u.t.d.	u.t.d.	u.t.d.	u.t.d.	210	138	u.t.d.	234	u.t.d.	COc1ccc(CNC(=O)c2ccc3nc4c5c(c6ccccc6c4nc3c2)OC(C)(C)[C@H]2CC[C@H](C)C[C@H]52)c(OC)c1 [Compound 16]	0.09	14.4	42.6	1480	3	>1.16^b		<0.79^b	>1.92^b	>1.14^b	IC50 [1, 9]: 129 µM; IC50 (MCF-7; MCF-7, hypoxia 1% O2, 72 h): 164 µM; Selectivity (MCF-7): >1.63^b; IC50 (μM) Hypoxia 1% O2 (LoVo; hypoxia 1% O2, 72 h): u.t.d.

SMILES	IC50 (MDA-MB-231) [µM]	IC50 (μM) Normoxia (MDA-MB-231)	IC50 (μM) Normoxia (MCF-7)	IC50 (μM) Hypoxia 1% O2 (PC3; PC3, hypoxia 1% O2, 72 h)	IC50 (μM) Normoxia (PC3)	IC50 (LoVo; [8]) [µM]	IC50 (siHa) [µM]	IC50 (μM) Normoxia (siHa)	IC50 (U373) [µM]	IC50 (μM) Normoxia (U373)	IC50 [1, 2] [µM]	IC50 [1, 3] [µM]	IC50 [1, 4] [µM]	Selectivity [1, 5]	Selectivity [1, 6]	Selectivity (MDA-MB-231)	IC50 (LoVo; [7]) [µM]	Selectivity (LoVo)	Selectivity (siHa)	Selectivity (U373)	further results
COC(=O)c1ccc2nc3c(nc2c1)c1c(c2ccccc23)OC(C)(C)[C@H]2CC[C@H](C)C[C@H]12 [Compound 11′]	136	u.t.d.	u.t.d.		u.t.d.	220	132	u.t.d.	74.9	u.t.d.	13.6	11.8	176	16.5	15	>1.67^b	154	1.43	>1.72^b	>3.03^b	IC50 [1, 9]: 225 µM; IC50 (MCF-7; MCF-7, hypoxia 1% O2, 72 h): 150 µM; Selectivity (MCF-7): >1.52^b; IC50 (PC3; Homo sapiens, PC-3, PC3, hypoxia 1% O2, 72 h, read-out: IC50 (μM) Hypoxia 1% O2): 161 µM; Selectivity (PC3; PC3, IC50 (normoxia)/IC50 (hypoxia 1% O2), if u.t.d., ratio of activity at 100 μM): >1.41^b
